From PubChem BioAssay AID549 (SRMLSC, 2006)
pIC50: −log10 of the molar value. Active and inactive are the calls of the source.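 How the source made its calls: active means clearly stronger inhibition of phosphomevalonate kinase than of the coupling enzymes alone in a parallel counterscreen; inactive means the rest.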

Target: not listed separately
Experiment: phosphomevalonate kinase inhibition IC50 – biochemical, mevalonate pathway, coupling enzyme counter-screen, dose response (AID 549)
Conditions: PMK enzyme, PK/LDH coupled NADH absorbance 340 nm; measured here: coupling enzymes counter-screen (hexokinase)

SMILES | pIC50
O=c1c2ccccc2[se]n1-c1ccccc1 | 4.14
CCOC(=O)c1cc2c(=O)n3cccc(C)c3nc2n(CCCOC)c1=NC(=O)c1cccnc1 | 4.87
CCOC(=O)N1C(=O)c2cc(OC)ccc2S1(=O)=O | 4.73
CCOC(=O)C1=C(C)NC(=O)NC1c1c(C)nn(-c2ccccc2)c1Cl (configuration not stated) | 5.45
COc1cccc(OC)c1-c1nn2c(-c3cc(-c4ccccc4)n[nH]3)nnc2s1 | 4.37

Target: phosphomevalonate kinase (Streptococcus pneumoniae D39)
Experiment: as above
Conditions: PMK enzyme, PK/LDH coupled NADH absorbance 340 nm

SMILES | IC50 | outcome
O=c1c2ccccc2[se]n1-c1ccccc1 | inactive | 
CCOC(=O)c1cc2c(=O)n3cccc(C)c3nc2n(CCCOC)c1=NC(=O)c1cccnc1 | inactive | 
CCOC(=O)N1C(=O)c2cc(OC)ccc2S1(=O)=O | inactive | 
COc1ccc(Cn2nnnc2C(c2ccccn2)N2CCN(c3cc(Cl)ccc3C)CC2)cc1 (configuration not stated) |  | inactive
CCOC(=O)C1=C(C)NC(=O)NC1/C(C)=C/c1ccccc1 (configuration not stated) |  | inactive
COc1ccc(-c2cc3nc(C)c(CCC(=O)N4CCCCC4)c(C)n3n2)c(OC)c1 |  | inactive
CCOc1ccc2[nH]c(=O)c(C(c3nnnn3CC3CCCO3)N3CCc4ccccc4C3)cc2c1 (configuration not stated) |  | inactive
COc1cc(-c2nnc(COc3ccc4ccccc4c3)o2)cc(OC)c1OC |  | inactive
COc1ccc(NC2CC(=O)NC2=O)cc1 (configuration not stated) |  | inactive
CCOC(=O)C1=C(C)NC(=O)NC1c1c(C)nn(-c2ccccc2)c1Cl (configuration not stated) | inactive | 
COc1ccc(C(=O)Nc2ccncc2)cc1OC |  | inactive
CCC1CCCCN1CCCNC(=O)Cn1nc(-c2ccccc2)ccc1=O (configuration not stated) |  | inactive
CCN1C(=O)/C(=C2/Sc3ccc(OC)cc3N2C)SC1=Nc1ccc(C(C)=O)cc1 |  | inactive
COc1ccc(C2C3=C(OC(C)=O)c4ccccc4C3=Nc3c2c(=O)n(C)c(=O)n3C)cc1 (configuration not stated) |  | inactive
CC(C)n1nnnc1SCC(=O)Nc1ccccc1N1CCOCC1 |  | inactive
CCOc1ccc(CNC(=O)C2CCN(S(=O)(=O)N3CCCC3)CC2)cc1OC |  | inactive
OC1CCCN(Cc2ccc3c(c2)Cc2ccccc2-3)C1 (configuration not stated) |  | inactive
CC(C)CCn1nnnc1C(c1ccc(F)cc1)N1CCN(C(=O)c2ccco2)CC1 (configuration not stated) |  | inactive
C=CCNC(=O)C1CCCN(S(C)(=O)=O)C1 (configuration not stated) |  | inactive
CS(=O)(=O)N(CC(=O)N1CCN(c2ccccc2)CC1)C1CCCCC1 |  | inactive
CCCN(C(=O)c1ccccc1N)c1c(C)n(C)n(-c2ccccc2)c1=O |  | inactive
COc1ccc(C(=O)Nc2cccc3c2C(=O)NC3=O)cc1S(=O)(=O)N1CCOCC1 |  | inactive
CCOC(=O)CNC(=O)Nc1nnc(-c2ccc(OCC)cc2)o1 |  | inactive
COCCNC(=O)C1CCCN(c2nn3c(=O)cc(C)nc3s2)C1 (configuration not stated) |  | inactive
COc1cc2[nH]c(=O)n(CCC(=O)NC3CCN(Cc4ccccc4)CC3)c(=O)c2cc1OC |  | inactive

SMILES | IC50 | outcome
CC(=O)c1ccc(N2CCN(c3ccc(C(F)(F)F)cn3)CC2)cc1 |  | inactive
Cc1ccc(C(=O)c2cc3c(cc2N)OCCO3)cc1 |  | inactive
O=C(Nc1cccc2ccccc12)c1cnccn1 |  | inactive
CCN(CC)C(=O)NC1CC2CCCC(C1)N2Cc1ccccc1 (configuration not stated) |  | inactive
CS(=O)(=O)N1CCCC(C(=O)NCCc2ccc(Cl)cc2)C1 (configuration not stated) |  | inactive
O=C(c1cc2nc(-c3ccco3)cc(C(F)(F)F)n2n1)N1CCc2ccccc2C1 |  | inactive
CCOc1cc(C#N)c(NC(=O)c2cccnc2)cc1OCC |  | inactive
CCOC(=O)C1=C(C)Nc2ccccc2N=C1NC(=O)CCCN1C(=O)c2ccccc2C1=O |  | inactive
CC1(C)CC(=O)C(C(C2=C(O)CC(C)(C)CC2=O)c2cccc(O)c2)C(=O)C1 (configuration not stated) |  | inactive
COc1cc2cc(CN(CCCO)S(=O)(=O)c3ccccc3Cl)c(=O)[nH]c2cc1OC |  | inactive
CCOC(=O)c1cnc(SCC(=O)N2CCN(C(=O)c3ccco3)CC2)nc1N |  | inactive
O=C(NCc1cccs1)C1CCCN(c2nc3ccccc3o2)C1 (configuration not stated) |  | inactive
O=C(c1n[nH]c(=O)c2ccccc12)N1CCN(C2c3ccccc3-c3ccccc32)CC1 |  | inactive
Cc1cc(OCC(=O)NCCO)cc(C)c1Cl |  | inactive
CN1CC(=O)NC1=NC(=O)c1ccc(Cl)c(S(=O)(=O)N2CCCCCC2)c1 |  | inactive
CC(C)OC(=O)c1cccnc1SCc1cc(=O)n2ccccc2n1 |  | inactive
CC(=O)N1CCc2cc(S(=O)(=O)NC3CCCc4ccccc43)ccc21 (configuration not stated) |  | inactive
COc1ccc(N2CCN(CCNS(=O)(=O)c3cccc4nsnc34)CC2)cc1 |  | inactive
COc1ccc2c(c1OC)CN(C)CCc1cc3c(cc1C(O)C2)OCO3 (configuration not stated) |  | inactive
COc1ccc(OC)c(NC(=O)CNC(=O)Cn2ccc3ccccc3c2=O)c1 |  | inactive
Cc1ccc(NC(=O)CSc2nnc(Cn3c(=O)sc4ccccc43)n2C)cc1Cl |  | inactive
CN1CCc2c(sc3c2c(=O)n(-c2ccccc2)c2nnc(SCc4ccc(F)cc4)n32)C1 |  | inactive
O=C(Cc1cn2ccsc2n1)OCc1nc2ccccc2s1 |  | inactive
CCOC(=O)C1CCCN(C(=O)C2CCCN(S(C)(=O)=O)C2)C1 (configuration not stated) |  | inactive
CCOC(=O)c1ccccc1NCN1C(=O)CSC1=O |  | inactive

SMILES | IC50 | outcome
CCn1c(SCC(=O)c2[nH]c(C)c(C(C)=O)c2C)nnc1-c1cccs1 |  | inactive
O=C(Nn1c(C2CC2)nc2ccccc2c1=O)c1ccco1 |  | inactive
COc1ccc(OCC(=O)N2CCN(c3nnc(-c4ccccc4)c4ccccc34)CC2)cc1 |  | inactive
CC(CC(=O)O)NCC1COc2ccccc2O1 (configuration not stated) |  | inactive
O=C(NC1CCCCC1)C1CC(=O)N(c2ccc(Cl)cc2)C1 (configuration not stated) |  | inactive
O=c1oc2c3c4c(cc2cc1-c1nc2ccccc2[nH]1)CCCN4CCC3 |  | inactive
CCC(=O)N(Cc1ccco1)c1nc(-c2ccccc2)cs1 |  | inactive
COC(=O)C(NC(=O)c1ccccc1)=C1C=C(C)OC(C)=C1 |  | inactive
Cc1csc(NC(=O)C2CCC(C)(C(=O)O)C2(C)C)n1 (configuration not stated) |  | inactive
O=C(Nc1c(-c2ccccc2)nc2sccn12)c1ccccc1 |  | inactive
CCC1Oc2ccc(C)cc2N(CC(=O)NCCN2CCCCCC2)C1=O (configuration not stated) |  | inactive
CCN=c1sc(C(=O)NCCc2ccccc2)cc(=O)n1CC |  | inactive
COC(=O)c1cc(=O)nc2sccn12 |  | inactive
O=C(CCSc1nc(-c2ccc3c(c2)OCO3)cc(C(F)(F)F)n1)NCc1ccco1 |  | inactive
C=CCSc1nnc(Cn2c(=O)sc3ccccc32)n1C |  | inactive
CC(C)C(C(=O)NCC1CCCO1)N(Cc1ccco1)C(=O)CNS(=O)(=O)c1ccc(F)cc1 (configuration not stated) |  | inactive
COCc1cc(=O)[nH]c(Nc2nc(C)c3ccc(C)cc3n2)n1 |  | inactive
COc1ccccc1CN(Cc1cc2cc(C)cc(C)c2[nH]c1=O)Cc1nnnn1CC1CCCO1 (configuration not stated) |  | inactive
CCN1CCN(C(c2ccc(F)cc2)c2nnnn2Cc2cccs2)CC1 (configuration not stated) |  | inactive
CCOC(=O)C(CCc1nnc(N)s1)C(=O)OCC |  | inactive
CC(C)OC(=O)C1C(=O)CC(C)(O)C(C(=O)OC(C)C)C1c1cccnc1 (configuration not stated) |  | inactive
O=C(CNCC1CCCO1)Nc1ccccc1N1CCOCC1 (configuration not stated) |  | inactive
O=C(CNC(=O)c1cccs1)NCCN1CCN(c2ccccc2F)CC1 |  | inactive
Cc1nc2ccccc2n2c(O)c(CC(=O)O)cc12 |  | inactive
CC1(C(=O)NC2CCCCCCC2)CCC(=O)N1Cc1ccco1 (configuration not stated) |  | inactive

SMILES | IC50 | outcome
CON(C)c1nc(OCCNC(=O)OCc2ccc(Cl)cc2Cl)nc(N(C)C)n1 |  | inactive
COc1ccccc1-n1c(SCC(=O)N2CCCCC2)nnc1-c1ccccc1O |  | inactive
Cc1cc(C)n2c(SCC(=O)N(C)C3CCS(=O)(=O)C3)nnc2n1 (configuration not stated) |  | inactive
Cc1n[nH]c(=S)n(/N=C/c2ccccn2)c1=O |  | inactive
CCOC(=O)N1CCC(NC(=O)CSc2cc(=O)n(C)c3ccccc23)CC1 |  | inactive
O=C(COC(=O)c1ccco1)NC1CCCCC1 |  | inactive
Cc1ccc(-n2c(CSc3nc(C)cc(C)n3)nnc2SCC(=O)NCc2ccco2)cc1 |  | inactive
CC(C)COC(=O)NCC12C=CC(O1)C1C(=O)N(c3ccc(Cl)cc3)C(=O)C12 (configuration not stated) |  | inactive
CCOC(=O)c1c(NC(=O)c2cc(C3CC3)on2)sc2c1CCCC2 |  | inactive
COc1ccccc1C(c1nnnn1C(C)(C)C)N1CCN(Cc2ccncc2)CC1 (configuration not stated) |  | inactive
COc1cccc(OC)c1-c1nn2c(-c3cc(-c4ccccc4)n[nH]3)nnc2s1 | inactive | 
CCCn1cnc2c(cnn2-c2ccc(F)cc2)c1=O |  | inactive
COC(=O)c1ccccc1S(=O)(=O)N(Cc1cc2ccc(OC)cc2[nH]c1=O)CC1CCCO1 (configuration not stated) |  | inactive
CCNc1nc(NC(C)(C)C)nc(N(C#N)CC)n1 |  | inactive
OC1(CN2CCOCC2)C2CN3CCN(C2)CC1(c1ccccc1)C3 (configuration not stated) |  | inactive
CNS(=O)(=O)c1cccc(C(=O)OC2CCCCC2=O)c1 (configuration not stated) |  | inactive
Cc1ccc(Cl)cc1N1CCN(Cc2nnnn2C2CCCCC2)CC1 |  | inactive
O=C(Nc1ccc(-c2noc(COc3ccccc3Cl)n2)cc1)c1ccco1 |  | inactive
Cc1cc(C)n2nc(SCc3cc(=O)n4c(C)cccc4n3)nc2n1 |  | inactive
Cc1oc2c(O)c(O)ccc2c(=O)c1-c1ccccc1 |  | inactive
Cc1cc(C)n2nc(SCC(=O)NCc3ccco3)nc2n1 |  | inactive
c1ccc(CCn2nnnc2C(c2cccs2)N2CCOCC2)cc1 (configuration not stated) |  | inactive
